Tests used:
[1] = test system: G proteins migrating at 41 kDa in liver plasma membranes; test: Receptor dependent labeling of hepatocyte G proteins with AA-[32P]GTP; type: biochemical
Method: Receptor dependent labeling of hepatocyte G proteins with 4-Azidoanilido-α[^32 P]GTP. The protocol for labeling G proteins with AA-GTP was as described previously (11). The AA-[32P]-GTP used in the labeling experiments was prepared according to the protocol of Offermans et al. (6,7).
The purpose of these labeling studies was to determine whether PP stimulated the binding of AA-[^32 P]GTP to proteins migrating at the known molecular weight of G proteins in liver plasma membranes. […] Incubation of liver plasma membranes with 1 μM angiotensin II produced a two-fold increase in labeling of G protein(s) migrating at 41 kDa on SDS PAGE gels The 41 kDa band represents the pertussis-sensitive G protein family that is expressed in hepatocytes and which couples to angiotensin II receptors.

[2] = target: T1, glucagon receptor (Rattus norvegicus, UniProt P30082); test: Glucagon saturation binding in liver plasma membranes; parameters: species or system Zucker rat
T1 construct: from tissue; host or cells: liver plasma membranes of lean and fatty (fa/fa) Zucker rats
T1 sequence (P30082 27-485): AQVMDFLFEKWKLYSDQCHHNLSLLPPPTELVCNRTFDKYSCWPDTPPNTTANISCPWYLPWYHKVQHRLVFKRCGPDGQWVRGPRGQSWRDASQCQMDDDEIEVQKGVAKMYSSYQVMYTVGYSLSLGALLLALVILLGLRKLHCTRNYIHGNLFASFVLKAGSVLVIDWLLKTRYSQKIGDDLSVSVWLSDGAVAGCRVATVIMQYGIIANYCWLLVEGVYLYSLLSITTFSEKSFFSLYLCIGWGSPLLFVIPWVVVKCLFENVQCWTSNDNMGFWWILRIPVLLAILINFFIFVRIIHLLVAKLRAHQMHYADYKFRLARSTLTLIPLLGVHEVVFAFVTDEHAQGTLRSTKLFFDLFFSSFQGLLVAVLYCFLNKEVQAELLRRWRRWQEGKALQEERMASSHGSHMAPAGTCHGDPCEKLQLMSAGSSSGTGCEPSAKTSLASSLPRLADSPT
Method: (§1) Experimental Animal Protocol. Lean (+/?) and fatty (fa/fa) Zucker rats were obtained from Harlan Labs at seven weeks of age and randomly assigned to two groups within each phenotype. One group was injected subcutaneously with PP (Peninsula Labs (Belmont, Calif.) (200 μg/day/kg body weight) in a vehicle of physiological saline (0.9% w/v) while the other group was injected with only vehicle. The two groups within each phenotype received their respective treatments for five days, after which the animals were weighed and sacrificed following an overnight fast. Blood samples were obtained from each animal for assays of plasma glucose and insulin according to standard methods known in the art (3) and the pancreas was removed and subjected to an acid-ethanol extraction (0.1N HCl, 70% ethanol) as described previously for assay of pancreatic insulin (3). Livers were removed into ice cold balanced salt solution. […]
Binding curves were analyzed using nonlinear least squares.

[3] = target: T1, glucagon receptor; test: Glucagon competition binding in liver plasma membranes (50 pM labeled glucagon, with and without GTP); parameters: species or system Zucker rat
[4] = test system: adenylyl cyclase; test: Adenylyl cyclase assay in liver plasma membranes; type: biochemical, Zucker rat; details: for effect of PP treatment on efficacy of glucagon in activating adenylyl cyclase: PP 200 μg/day/kg s.c. five days
Method: Lean (+/?) and fatty (fa/fa) Zucker rats were obtained from Harlan Labs at seven weeks of age and randomly assigned to two groups within each phenotype. One group was injected subcutaneously with PP (Peninsula Labs (Belmont, Calif.) (200 μg/day/kg body weight) in a vehicle of physiological saline (0.9% w/v) while the other group was injected with only vehicle. The two groups within each phenotype received their respective treatments for five days, after which the animals were weighed and sacrificed following an overnight fast. Blood samples were obtained from each animal for assays of plasma glucose and insulin according to standard methods known in the art (3) and the pancreas was removed and subjected to an acid-ethanol extraction (0.1N HCl, 70% ethanol) as described previously for assay of pancreatic insulin (3). Livers were removed into ice cold balanced salt solution. After cooling, each liver was cleaned of connective tissue and minced into 2-4 mm pieces with scissors in 5 ml of ice-cold homogenizing buffer (50 mM Hepes, pH 6.5, 5 mM EDTA, 3 mM orthophenanthroline, 0.2 μM iodoacetic acid, 1 mM PMSF, 25 μm leupeptin (3). The minced liver was homogenized in a 40 ml Dounce homogenizer in 25 ml of homogenizing buffer with 25 strokes of the loose pestle and three strokes of the tight pestle. The homogenate was centrifuged for five minutes at 3000×g. The supernatant was removed and centrifuged for 20 min at 16,000×g. The resulting pellet was retained, resuspended in phosphate buffered saline (PBS) containing 5 mM MgCl2 and homogenized with five strokes of the Dounce homogenizer. After centrifuging for 20 min at 16,000×g, the membrane pellet was resuspended in homogenizing buffer containing 0.1% bovine serum albumin (BSA). Aliquots were frozen in liquid nitrogen and stored at -80° C.
Adenylyl cyclase activity leading to the production of cAMP was determined in liver plasma membranes by methods previously described (2, 4). […] Cyclic AMP formed in the reaction was measured in the supernatant by radioimmunoassay according to methods described previously (2, 4). […]

[5] = test system: Gs α; test: Western blot assay of Gs α in liver plasma membranes; type: in vivo, Zucker rat; details: PP 200 μg/day/kg s.c. five days
Method: as §1, with “(3).” for “(3). Livers were removed into ice cold balanced salt solution.”
Purified liver plasma membranes were solubilized on ice for one hour in 20 mM Tris, 1 mM EDTA, 1 mM DTT, 100 mM NaCl and 0.9% sodium cholate (pH 8.0). […] Following the procedure of Mumby (20), the PVDF membranes were probed with Gs α IgG and the bands were detected with ^125 I-labeled goat anti-rabbit IgG (1.0×10^6 cpm/ml). […]
In performing the Western blot assays, protein was carefully measured in the liver plasma membrane supernatant to assure that equal amounts of soluble membrane protein would be loaded from the respective treatment groups.

increase in AA-[32P]GTP labeling of G protein(s) migrating at 41 kDa ([1]; 1 μM) | Compound | effect of PP treatment on total glucagon binding sites ([2]; either phenotype (lean and fatty Zucker rats), PP 200 μg/day/kg s.c. five days) | Bmax, total glucagon binding sites ([2]; liver membranes of fatty Zucker rats treated with PP 200 μg/day/kg s.c. for five days) [fmol/mg] | percentage of high affinity glucagon binding sites ([3]; fatty Zucker rats treated with PP for five days) [%] | percentage of high affinity glucagon binding sites ([3]; lean Zucker rats treated with PP for five days) [%] | labeling of G proteins migrating at 41 kDa, result in words [1] | maximal increase in AA-[32P]GTP labeling of G proteins migrating at 41 kDa ([1]; maximal effect) | effect of PP treatment on efficacy of glucagon in activating adenylyl cyclase ([4]; fatty Zucker rats) | effect of PP treatment on efficacy of glucagon in activating adenylyl cyclase ([4]; lean Zucker rats) | maximal adenylyl cyclase activation by glucagon ([4]; second replicate, PP treated fatty Zucker rats (200 μg/day/kg s.c., five days)) [pmol cAMP/min/mg] | effect of PP treatment on hepatic Gs α expression ([5]; fatty Zucker rats) | effect of PP treatment on hepatic Gs α expression ([5]; lean Zucker rats)
two-fold | angiotensin II (DRVYIHPF; Angiotensin-2; UniProt P01019 25-32, looked up) [positive control that couples to pertussis-sensitive G proteins, reference compound] | – | – | – | – | – | – | – | – | – | – | –
– | CC[C@H](C)[C@H](NC(=O)[C@H](Cc1ccc(O)cc1)NC(=O)[C@H](CCCNC(=N)N)NC(=O)[C@H](CCCNC(=N)N)NC(=O)[C@H](CC(C)C)NC(=O)[C@H](CC(=O)O)NC(=O)[C@H](C)NC(=O)[C@H](C)NC(=O)[C@H](Cc1ccc(O)cc1)NC(=O)[C@H](CCC(N)=O)NC(=O)[C@H](C)NC(=O)[C@H](CCSC)NC(=O)[C@H](CCC(N)=O)NC(=O)[C@H](CCC(=O)O)NC(=O)[C@@H]1CCCN1C(=O)[C@@H](NC(=O)[C@H](C)NC(=O)[C@H](CC(N)=O)NC(=O)[C@H](CC(=O)O)NC(=O)CNC(=O)[C@@H]1CCCN1C(=O)[C@H](Cc1ccc(O)cc1)NC(=O)[C@@H](NC(=O)[C@@H]1CCCN1C(=O)[C@H](CCC(=O)O)NC(=O)[C@H](CC(C)C)NC(=O)[C@@H]1CCCN1C(=O)[C@H](C)N)C(C)C)[C@@H](C)O)C(=O)N[C@@H](CC(N)=O)C(=O)N[C@@H](CCSC)C(=O)N[C@@H](CC(C)C)C(=O)N[C@H](C(=O)N[C@@H](CCCNC(=N)N)C(=O)N1CCC[C@H]1C(=O)N[C@@H](CCCNC(=N)N)C(=O)N[C@@H](Cc1ccc(O)cc1)C(N)=O)[C@@H](C)O [PP] | failed to alter total glucagon binding sites | 569 ± 45 | 71 | 55 | concentration-dependent increase in labeling | approximately two-fold | significant decrease in the efficacy of glucagon | did not modify the efficacy of glucagon | 60.2±1.5 | decreased hepatic expression of Gs α to levels similar to that seen in lean rats | not altered

Reference: patent US5830434A, “Methods of treating non-insulin dependent diabetes mellitus with pancreatic polypeptide” (Medical University of South Carolina Foundation for …, priority 1997, dated 1998)
